Results taken from ChEMBL document CHEMBL1139355, “Selectively targeting T- and B-cell lymphomas: a benzothiazole antagonist of alpha4beta1 integrin” (J Med Chem, 2009).
pIC50: −log10 of the molar value.

Biological target: Integrin alpha-4/beta-1 (Homo sapiens, UniProt P05556+P13612)
Assay: Inhibition of human integrin alpha-4-beta-1-mediated MOLT4 cell adhesion to biotin-conjugated CS-1 peptide
Format: cell-based, MOLT-4

Chain of Integrin alpha-4/beta-1 (P05556 whole entry): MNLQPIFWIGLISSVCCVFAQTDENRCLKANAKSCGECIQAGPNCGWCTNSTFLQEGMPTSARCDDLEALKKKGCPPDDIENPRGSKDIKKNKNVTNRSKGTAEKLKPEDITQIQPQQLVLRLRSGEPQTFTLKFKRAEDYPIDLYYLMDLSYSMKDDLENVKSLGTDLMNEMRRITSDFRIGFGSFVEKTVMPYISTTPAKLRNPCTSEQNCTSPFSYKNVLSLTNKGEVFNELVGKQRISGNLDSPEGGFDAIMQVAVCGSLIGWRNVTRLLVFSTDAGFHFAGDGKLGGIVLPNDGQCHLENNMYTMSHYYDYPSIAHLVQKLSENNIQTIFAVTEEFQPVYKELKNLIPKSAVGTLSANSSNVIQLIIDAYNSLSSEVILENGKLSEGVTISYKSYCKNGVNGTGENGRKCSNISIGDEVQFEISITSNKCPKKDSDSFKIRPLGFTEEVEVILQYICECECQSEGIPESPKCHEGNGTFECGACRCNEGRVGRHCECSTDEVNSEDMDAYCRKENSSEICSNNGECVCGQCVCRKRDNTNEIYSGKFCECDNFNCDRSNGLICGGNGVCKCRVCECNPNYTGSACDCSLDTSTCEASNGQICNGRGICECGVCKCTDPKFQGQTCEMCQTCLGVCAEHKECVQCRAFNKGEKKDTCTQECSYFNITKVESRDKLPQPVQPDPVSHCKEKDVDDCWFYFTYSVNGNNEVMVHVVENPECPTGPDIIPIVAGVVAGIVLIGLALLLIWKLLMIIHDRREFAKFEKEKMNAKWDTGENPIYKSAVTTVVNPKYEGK
Chain of Integrin alpha-4/beta-1 (P13612 whole entry): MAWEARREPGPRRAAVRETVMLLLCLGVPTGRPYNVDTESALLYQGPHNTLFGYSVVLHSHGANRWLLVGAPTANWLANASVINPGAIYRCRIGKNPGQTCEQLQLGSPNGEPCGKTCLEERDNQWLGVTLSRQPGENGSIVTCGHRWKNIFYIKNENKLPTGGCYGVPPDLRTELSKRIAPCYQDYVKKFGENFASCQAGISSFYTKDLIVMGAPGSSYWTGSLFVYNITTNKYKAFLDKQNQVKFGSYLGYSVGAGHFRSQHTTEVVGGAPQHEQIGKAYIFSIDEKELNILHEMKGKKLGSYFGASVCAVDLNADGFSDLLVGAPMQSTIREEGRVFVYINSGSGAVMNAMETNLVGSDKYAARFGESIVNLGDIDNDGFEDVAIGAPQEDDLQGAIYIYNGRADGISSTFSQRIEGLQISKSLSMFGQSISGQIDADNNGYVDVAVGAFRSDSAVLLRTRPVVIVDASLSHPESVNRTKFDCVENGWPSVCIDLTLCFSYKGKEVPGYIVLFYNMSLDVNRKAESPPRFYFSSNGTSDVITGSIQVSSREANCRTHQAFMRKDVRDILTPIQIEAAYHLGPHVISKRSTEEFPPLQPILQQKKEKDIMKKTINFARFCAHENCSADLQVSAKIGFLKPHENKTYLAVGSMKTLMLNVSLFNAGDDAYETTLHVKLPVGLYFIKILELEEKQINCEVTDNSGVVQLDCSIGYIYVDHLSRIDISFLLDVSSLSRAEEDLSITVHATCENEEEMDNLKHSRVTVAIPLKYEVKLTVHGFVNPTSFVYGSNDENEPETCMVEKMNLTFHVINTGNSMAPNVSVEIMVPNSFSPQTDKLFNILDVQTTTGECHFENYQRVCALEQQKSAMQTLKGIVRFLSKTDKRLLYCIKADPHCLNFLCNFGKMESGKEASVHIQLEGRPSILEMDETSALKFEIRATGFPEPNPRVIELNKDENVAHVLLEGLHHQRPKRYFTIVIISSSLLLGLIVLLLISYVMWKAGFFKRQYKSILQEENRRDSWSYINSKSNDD

Row | SMILES | pIC50
1 | NC(=O)C1(NC(=O)[C@@H](CCCC(=O)O)NC(=O)[C@@H](CCCCNC(=O)/C=C/c2cccnc2)NC(=O)CCc2ccc(Nc3nc4cc(Br)ccc4[nH]3)cc2)CCCCC1 | 6.42
2 | NC(=O)C1(NC(=O)[C@@H](CCCC(=O)O)NC(=O)[C@@H](CCCCNC(=O)/C=C/c2cccnc2)NC(=O)Cc2ccc(Nc3nc4ccccc4s3)cc2)CCCCC1 | 10.28
3 | NC(=O)C1(NC(=O)[C@H](CCCC(=O)O)NC(=O)[C@H](CCCCNC(=O)/C=C/c2cccnc2)NC(=O)Cc2ccc(Nc3nc4ccccc4[nH]3)cc2)CCCCC1 | 9.52
4 | NC(=O)C1(NC(=O)[C@@H](CCCC(=O)O)NC(=O)[C@@H](CCCCNC(=O)/C=C/c2cccnc2)NC(=O)c2ccc(Nc3nc4ccccc4s3)cc2)CCCCC1 | 6.46
